Columns and labels:
PTPN2 (B16F10.4 cells) = target: T1, PTPN2 (B16F10.4 cells) (Mus musculus, UniProt Q06180); test: HiBiT Degradation B16F10.4 PTPN2; type: cell-based; conditions: 24.0 hours
T1 construct: HiBiT; host or cells: B16F10.4
T1 sequence (Q06180 1-406): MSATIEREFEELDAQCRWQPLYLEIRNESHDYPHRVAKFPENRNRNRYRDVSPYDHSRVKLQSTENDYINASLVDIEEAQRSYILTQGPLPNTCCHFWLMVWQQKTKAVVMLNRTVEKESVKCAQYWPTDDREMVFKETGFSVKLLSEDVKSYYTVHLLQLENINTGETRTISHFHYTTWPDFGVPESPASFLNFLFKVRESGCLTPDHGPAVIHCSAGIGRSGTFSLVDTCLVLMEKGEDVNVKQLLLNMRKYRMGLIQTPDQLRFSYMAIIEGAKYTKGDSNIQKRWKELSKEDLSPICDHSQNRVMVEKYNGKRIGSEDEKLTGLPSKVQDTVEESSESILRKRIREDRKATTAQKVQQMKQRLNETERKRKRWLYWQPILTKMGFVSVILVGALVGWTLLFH

[1] = target: T2, PTPN2 (HiBIT-PTPN2 in 293T.109 cells) (Homo sapiens, UniProt P17706); test: HiBiT Degradation 293T.109 PTPN2 (Nano-Glo HiBiT Lytic Assay); type: cell-based; conditions: 24.0 hours
T2 construct: expressed in transfected cells; host or cells: 293T.109 (293T WT from ATCC)
T2 sequence (P17706 1-415): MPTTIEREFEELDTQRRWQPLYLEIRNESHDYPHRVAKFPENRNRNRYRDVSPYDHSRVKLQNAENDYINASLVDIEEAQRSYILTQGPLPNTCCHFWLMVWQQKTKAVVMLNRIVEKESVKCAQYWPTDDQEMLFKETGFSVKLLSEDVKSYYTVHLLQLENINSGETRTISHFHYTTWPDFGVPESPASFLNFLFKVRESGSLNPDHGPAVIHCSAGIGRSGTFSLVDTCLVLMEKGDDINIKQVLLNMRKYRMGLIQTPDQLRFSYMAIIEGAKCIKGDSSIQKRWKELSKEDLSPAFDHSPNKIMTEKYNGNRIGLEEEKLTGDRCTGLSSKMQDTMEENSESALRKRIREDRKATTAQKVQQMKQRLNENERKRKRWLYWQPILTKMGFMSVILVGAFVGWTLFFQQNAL
Excerpt: Dulbecco's modified Eagle medium (DMEM) without phenol red and fetal bovine serum (FBS) were purchased from Gibco (Grand Island, NY, USA). Nano-Glo® HiBIT Lytic Assay System was purchased from Promega (Madison, WI, USA). 293T.109 (HiBIT-PTPN2) cell line was generated by ectopically expressing PTPN2 with N-terminal HiBIT fusion tag in 293T WT cell line purchased from ATCC (Manassas, VA, USA). Cell culture flasks and 384-well microplates were acquired from VWR (Radnor, PA, USA).
PTPN2 degradation was determined based on quantification of luminescent signal using Nano-Glo® HiBIT Lytic Assay kit. Test compounds were added to the 384-well plate from a top concentration of 10 μM with 11 points, half log titration in duplicates. 293T.109 cells were added into 384-well plates at a cell density of 5000 cells per well. The plates were kept at 37° C. with 5% CO2 for 24 hours. The cells treated in the absence of the test compound were the negative control and the cells without Nano-Glo® HiBIT Lytic reagent were the positive control. After 24-hour incubation, Nano-Glo® HiBiT Lytic Assay reagents were added to the cells. Luminescence was acquired on EnVision™ Multilabel Reader (PerkinElmer, Santa Clara, CA, USA).

Row | SMILES | DC50 (PTPN2 (B16F10.4 cells)) [nM] | DC50 [1] [nM]
1 | CC1(C)C[C@@H](Nc2cccc(-c3sc(C(=O)O)c(OCC(=O)O)c3Cl)c2)CCN1S(=O)(=O)Cc1cccc(NC(=O)C2CN(C(=O)CNc3cccc4c3CN([C@@H]3CCC(=O)NC3=O)C4=O)C2)c1 (single isomer, unassigned) [Example 44a] | 200 to 1000 | < 50
2 | CC1(C)C[C@@H](Nc2cccc(-c3sc(C(=O)O)c(OCC(=O)O)c3Cl)c2)CCN1S(=O)(=O)Cc1cccc(NC(=O)C2CN(C(=O)CNc3cccc4c3CN([C@H]3CCC(=O)NC3=O)C4=O)C2)c1 (single isomer, unassigned) [Example 44b] | 200 to 1000 | < 50
3 | CC(C)n1c(=O)n([C@@H]2CCC(=O)NC2=O)c2ccc(C3CCN(C(=O)Nc4cccc(CS(=O)(=O)N5CC[C@H](Nc6cccc(-c7sc(C(=O)O)c(OCC(=O)O)c7Cl)c6)CC5(C)C)c4)CC3)cc21 (single isomer, unassigned) [Example 87a] | 50 to 200 | 50 to 200
4 | CC(C)n1c(=O)n(C2CCC(=O)NC2=O)c2ccc(C3CCN(C(=O)Nc4cccc(CS(=O)(=O)N5CC[C@H](Nc6cccc(-c7sc(C(=O)O)c(OCC(=O)O)c7Cl)c6)CC5(C)C)c4)CC3)cc21 (single isomer, unassigned) [Example 87b] | 50 to 200 | 50 to 200
5 | CC1(C)C[C@@H](Nc2cccc(-c3sc(C(=O)O)c(OCC(=O)O)c3Cl)c2F)CCN1S(=O)(=O)Cc1ccc(F)c(NC(=O)C2CN(C(=O)CNc3cccc4c3CN([C@@H]3CCC(=O)NC3=O)C4=O)C2)c1 (single isomer, unassigned) [Example 148a] | 200 to 1000 | < 50
6 | CC1(C)C[C@@H](Nc2cccc(-c3sc(C(=O)O)c(OCC(=O)O)c3Cl)c2F)CCN1S(=O)(=O)Cc1ccc(F)c(NC(=O)C2CN(C(=O)CNc3cccc4c3CN([C@H]3CCC(=O)NC3=O)C4=O)C2)c1 (single isomer, unassigned) [Example 148b] | 200 to 1000 | < 50
7 | CC1(C)C[C@@H](Nc2cccc(-c3sc(C(=O)O)c(OCC(=O)O)c3Cl)c2F)CCN1S(=O)(=O)Cc1ccc(F)c(NC(=O)N2CCC(c3ccc4c5c(cccc35)C(=O)N4C3CCC(=O)NC3=O)CC2)c1 (single isomer, unassigned) [Example 167] | < 50 | 50 to 200
8 | Cn1c(=O)n([C@H]2CCC(=O)NC2=O)c2ccc([C@@H]3CCN(C(=O)Nc4cccc(CS(=O)(=O)N5CC[C@H](Nc6cccc(-c7sc(C(=O)O)c(OCC(=O)O)c7Cl)c6)CC5(C)C)c4)CC3(F)F)cc21 (single isomer, unassigned) [Example 169a] | < 50 | < 50
9 | Cn1c(=O)n([C@@H]2CCC(=O)NC2=O)c2ccc([C@@H]3CCN(C(=O)Nc4cccc(CS(=O)(=O)N5CC[C@H](Nc6cccc(-c7sc(C(=O)O)c(OCC(=O)O)c7Cl)c6)CC5(C)C)c4)CC3(F)F)cc21 (single isomer, unassigned) [Example 169b] | 50 to 200 | 50 to 200
10 | CC1(C)C[C@@H](Nc2cccc(-c3sc(C(=O)O)c(OCC(=O)O)c3Cl)c2)CCN1S(=O)(=O)Cc1cccc(NC(=O)N2CCC(c3ccc4c5c(cccc35)C(=O)N4[C@@H]3CCC(=O)NC3=O)CC2)c1 (single isomer, unassigned) [Example 187a] | < 50 | < 50
11 | Cn1c(=O)n([C@H]2CCC(=O)NC2=O)c2ccc(C3CCN(C(=O)Nc4cccc(CS(=O)(=O)N5CC[C@H](Nc6cccc(-c7sc(C(=O)O)c(OCC(=O)O)c7Cl)c6)CC5(C)C)c4)CC3)cc21 (single isomer, unassigned) [Example 234] | < 50 | < 50
12 | Cn1c(=O)n([C@@H]2CCC(=O)NC2=O)c2ccc(C3CCN(C(=O)Nc4cccc(CS(=O)(=O)N5CC[C@H](Nc6cccc(-c7sc(C(=O)O)c(OCC(=O)O)c7Cl)c6)CC5(C)C)c4)CC3)cc21 (single isomer, unassigned) [Example 235] | < 50 | < 50
13 | Cn1c(=O)n(C2CCC(=O)NC2=O)c2ccc([C@@H]3CCN(C(=O)Nc4cccc(CS(=O)(=O)N5CC[C@H](Nc6cccc(-c7sc(C(=O)O)c(OCC(=O)O)c7Cl)c6)CC5(C)C)c4)C[C@@H]3F)cc21 (stereo in doubt) [Example 172] | < 50 | < 50
14 | CC1(C)C[C@@H](Nc2cccc(-c3sc(C(=O)O)c(OCC(=O)O)c3Cl)c2)CCN1S(=O)(=O)Cc1cccc(NC(=O)CCCCCn2cc(CNc3cccc4c3C(=O)N(C3CCC(=O)NC3=O)C4=O)nn2)c1 (stereo partly drawn) [Example 12, 3-(carboxymethoxy)-4-chloro-5-(3-(((4S)-1-((3-(6-(4-(((2-(2,6-dioxopiperidin-3-yl)-1,3-dioxoisoindolin-4-yl)amino)methyl)-1H-1,2,3-triazol-1-yl)hexanamido)benzyl)sulfonyl)-2,2-dimethylpiperidin-4-yl)amino)phenyl)thiophene-2-carboxylic acid] | 200 to 1000 | 200 to 1000
15 | CC1(C)C[C@@H](Nc2cccc(-c3sc(C(=O)O)c(OCC(=O)O)c3Cl)c2)CCN1S(=O)(=O)Cc1cccc(NC(=O)CCn2cc(CNc3cccc4c3C(=O)N(C3CCC(=O)NC3=O)C4=O)nn2)c1 (stereo partly drawn) [Example 13, 3-(carboxymethoxy)-4-chloro-5-(3-(((4S)-1-((3-(3-(4-(((2-(2,6-dioxopiperidin-3-yl)-1,3-dioxoisoindolin-4-yl)amino)methyl)-1H-1,2,3-triazol-1-yl)propanamido)benzyl)sulfonyl)-2,2-dimethylpiperidin-4-yl)amino)phenyl)thiophene-2-carboxylic acid] | 200 to 1000 | 200 to 1000
16 | CC1(C)C[C@H](Nc2cccc(-c3sc(C(=O)O)c(OCC(=O)O)c3Cl)c2)CCN1S(=O)(=O)Cc1cccc(NC(=O)CCn2cc(CNc3cccc4c3C(=O)N(C3CCC(=O)NC3=O)C4=O)nn2)c1 (stereo partly drawn) [Example 14, 3-(carboxymethoxy)-4-chloro-5-(3-(((4R)-1-((3-(3-(4-(((2-(2,6-dioxopiperidin-3-yl)-1,3-dioxoisoindolin-4-yl)amino)methyl)-1H-1,2,3-triazol-1-yl)propanamido)benzyl)sulfonyl)-2,2-dimethylpiperidin-4-yl)amino)phenyl)thiophene-2-carboxylic acid] | ≥ 1000 | 200 to 1000
17 | Cn1c(=O)n(C2CCC(=O)NC2=O)c2ccc(N3CCCC4(CN(C(=O)Nc5cccc(CS(=O)(=O)N6CC[C@H](Nc7cccc(-c8sc(C(=O)O)c(OCC(=O)O)c8Cl)c7)CC6(C)C)c5)C4)C3)cc21 (stereo partly shown) [Example 141] | 200 to 1000 | –
18 | CC1(C)C[C@@H](Nc2cccc(-c3sc(C(=O)O)c(OCC(=O)O)c3Cl)c2)CCN1S(=O)(=O)Cc1cccc(NC(=O)N2CCCN(c3ccc4c5c(cccc35)N(C3CCC(=O)NC3=O)C4=O)CC2)c1 (stereo partly drawn) [Example 164, 3-(carboxymethoxy)-4-chloro-5-(3-(((4S)-1-((3-(4-(1-(2,6-dioxopiperidin-3-yl)-2-oxo-1,2-dihydrobenzo[cd]indol-5-yl)-1,4-diazepane-1-carboxamido)benzyl)sulfonyl)-2,2-dimethylpiperidin-4-yl)amino)phenyl)thiophene-2-carboxylic acid] | – | 200 to 1000
